In patent publication US9650674B2, “Nucleic acid probes and methods of using the same” (Board of Trustees University of Arkansas, priority 2012, dated 2017):
{Cy5.5} = Cy5.5 cyanine dye label

Columns and labels:
WT and DNase I KO mice = assay: Intravital imaging of endonuclease activity in kidneys
From the text: At the next step, WT and DNase I KO mice were anesthetized and intravenously administered with 50 nmol/kg of AB259.3 probe followed by intravital imaging using Xenogen-IVIS.
To additionally confirm preferential accumulation and processing of AB259.3 probe in kidneys, separate set of mice was deeply anesthetized and subjected to abdominal incision and real-time intravital visualization of left kidney while performing intravenous injection of AB259.3 probe. […] For this, DNase I KO animals were subjected to open surgery that was used to administer 5 μl DNase I (0.1 mg/ml) to subcapsular space of upper ventral zone of left kidney. To control effect of DNase I, additional WT and DNase I KO mice were injected with same volume of the vehicle. Immediately after injection, mice were injected with 50 nmol/kg of AB259.3 probe intravenously and then imaged in a Xenogen-IVIS.
Male DNase I KO mice and their WT counterparts at the age 8-10 weeks were used for all experiments. All procedures with mice were performed under general anesthesia with 50 mg/kg ketamine. For subcutaneous administration, mice were injected with 10 μl of 0.1 μM AB259.3 in the dorsal subcutaneous site. For systemic visualization, AB259.3 was injected intravenously at 50 nmol/kg in tail vein.
Imaging of live and euthanized mice or their isolated organs were performed using Xenogen IVIS Image System 200 (Caliper Life Sciences, Hopkinton, Mass.) equipped with Living Image® Software.

NRK-52E cells = assay: Intracellular endonuclease activity in cultured cells, time-lapse microscopy; assay type: cell-based, rat; settings: AB259.3/Lipofectamine LTX complexes
Method: To test whether AB259.3 probe may be delivered intracellularly and thus be used as an indicator of endonuclease activity in live cells, NRK-52E cells were transfected with of AB259.3/Lipofectamine LTX complexes and imaged by time-lapse epifluorescence microscopy every 10 min for 8 hours. A 2.5-3 times increased fluorescence reached plateau in 1 hour after transfection and the cells retained fluorescent dye for the duration of experiment (FIG. 4A). To induce activity of endonucleases, cells were treated with cisplatin or camptothecin and imaged by time-lapse microscopy for Cy5.5 fluorescence. […] Therefore, it was concluded that AB259.3 can be delivered and used for intracellular monitoring of endonuclease activity in live cells. To further determine whether AB259.3 probe can be used in other cell lines, several of them were tested (FIG. 4D). […] It was then determined whether the probe without the loop would be consumed by NRK-52E cells equally to the original loop probe. […] Finally, PCR was used to determine whether the DNA part (as opposed to the fluorophores) of the probes enters the cells in vivo and in vitro.
Rat proximal tubular epithelial NRK-52E cells were used to test the ability of AB259.3 probe to measure endonuclease activity. The cells were seeded in a 24-well plate at 50,000 cells per well in complete DMEM medium supplemented with 10% fetal bovine serum. Cells were transfected with the AB259.3 probe using Lipofectamin LTX and then subjected to spinning disk confocal fluorescent time-lapse microscopy in 628/40-692/40 spectrum every 10 min for 8 hours using Olympus IX-81 image system equipped with Hamamatsu ORCA-ER camera and LiveCell microenvironmental control chamber (Pathology Devices Inc., Westminster, Md.). In separate experiment, cells were treated with either 25 μM cisplatin or 50 μM camptothecin for 8 hours, followed by 1-hour transfection with AB259.3 probe and 8-hour time-lapse imaging session with 10-min intervals using the same microscopy system.

WT mice = assay: Histological distribution of probe in kidneys; assay type: in vivo, mouse; settings: 50 nmol/kg intravenous
Method: It was assessed whether AB259.3 probe is specifically accumulated in any renal compartments or its accumulation in the kidney is simply due to the excretion with urine. For this, WT mice were administered intravenously with 50 nmol/kg of AB259.3 probe and kidneys were collected in 1 or 3 hours, frozen, cryosectioned and examined under fluorescent microscope in 628/40-692/40 spectrum. […] Morphologically, fluorescence was detected mainly in membranous parts of the epithelial cells, such as basolateral and, to lesser extent, at apical surface.

[Cy5.5]AACACTCCGATGAGTGTAGAATGT[Cy5.5] (DNA, 5' {Cy5.5}, 3' {Cy5.5}, backbone not given here) [AB259.3, hairpin DNA probe with Cy5.5 at both ends, protruding strand +5]
time to plateau of fluorescence in kidneys, intravital imaging (WT and DNase I KO mice; 50 nmol/kg intravenous, FIGS. 7A and 7B): 10 min
retention of fluorescence by kidneys (WT and DNase I KO mice; 50 nmol/kg intravenous, FIGS. 7C and 7D): at least 5 hours
time to plateau of Cy5.5 fluorescence in exposed left kidney, real-time (WT and DNase I KO mice; abdominal incision, intravenous injection, FIG. 7E): 10 min
time to plateau of fluorescence after transfection (NRK-52E cells): 1 h
increase of fluorescence in cells after transfection (NRK-52E cells; FIG. 4A): 2.5-3 times
renal localisation of activated probe at 1 hour (WT mice; 1 hour): cortical compartment, and mainly proximal tubules already contained significant amount of activated AB259.3 probe
renal localisation of activated probe at 3 hours (WT mice; 3 hours, FIG. 8): started to appear in medullar compartment and distal tubules
